According to patent US20240131198A1, “RATIOMETRIC BIOSENSOR TATTOOS AND USE THEREOF FOR REAL TIME MEASUREMENTS” (priority 2022, published 2024):

How the values were obtained:
rat skin = test: Delivery of Cy5-PEG/Cy3-PEG microneedle tattoo to the shaved skin of living rats; assay type: in vivo; details: MN delivery, fluorescence stereomicroscopy several hours after application
[1] = 50 μM/500 μM of FeSO4:H2O2, 10 μM dye
[2] = test system: inflammatory filaggrin-deficient (FLG-) skin model; test: H-Cy5-PEG/Cy7.5-PEG microneedle tattoo in human-based atopic skin model; assay type: cell-based; details: human-based atopic model of skin inflammation, 20 minutes
Procedure: To provide the proof of concept for our approach and to validate the potential use of a medical tattoo in a biological system, the sensing properties of the generated MNs were tested in human-based inflammatory skin model that closely emulates characteristics of atopic skin in vitro^[76] and has been previously verified for the presence of disease-relevant ROS.^[77] This model has been extensively characterized in previous work showing excellent correlation with atopic skin in vivo.^[76,78,79] The skin model is based on a filaggrin knockdown, as filaggrin mutations are a major pre-disposing factor for AD.^[80] […] Cy7.5 was selected based on its structural similarity to Cy5 and other cyanines, displaying similar physicochemical properties and allowing PEGylation in the same manner as Cy5, as well as its NIR fluorescence (λex=788 nm; λem=808 nm), optimal for visibility in the skin. […]
The MNs rapidly dissolved within 2 minutes, after which the backing layer was carefully removed. The fluorescence intensities of the sensor and reference dye in the skin models were determined using an IVIS Lumina II imaging system (Perkin Elmer) at 0, 5, 15 and 20 mins after MN application. […] The fluorescence signal for each model was assessed by selecting a region of interest (ROI) and by the signal-to-noise ratio (Cy5 ROI/Cy7.5 ROI).

[3] = Reoxidation of H-Cy5-PEG/Cy7.5-PEG microneedle tattoo in excised porcine skin; details: H2O2 (100 mM) or Fenton's reagent (40 μM/400 μM), portable fluorescence reader
Procedure: Microneedle tattoos containing both the sensor and reference dye were delivered ex vivo to excised porcine skin that had been treated with either distilled water (control), or a source of ROS—either H2O2 (100 mM) or Fenton's reagent (40 μM/400 μM).
Excised porcine skin was obtained and shaved using a manual blade razor to remove any hair. The skin was permeabilized using a 1.0 mm dermaroller (DermaRollerSystem.com, Markham, ON), 200 μL of either distilled H2O, 100 mM H2O2, or Fenton's Reagent (40 μM FeSO4/400 μM H2O2) was added and allowed to soak into the skin for 20 minutes, after which any excess was removed with a paper towel. […] After removal of the MN backing layer, the fluorescence of the application site was measured with the portable fluorescence reader, using both the Cy5 and Cy7.5 filters (Cy5: λex=638 nm, λem=668-702 nm; Cy7.5: λex=782 nm, λem=810-840 nm). For each MN application, 3 measurements were recorded at each wavelength.

UV-induced dermal ROS = test: In vivo sensing of UV irradiation-induced ROS in rat skin; parameters: species or system Sprague-Dawley rats; details: 30 minutes after application, t=0 h and t=24 h after irradiation
Description: Male Sprague-Dawley rats (Charles River, St-Constant, QC) with weight ranging from 300-350 g at delivery were used for this study. Following arrival in the animal facility, all animals were subjected to a general health evaluation. An acclimation period of 5 days was allowed before the beginning of the study. Each animal cage was equipped with a manual water distribution system. A standard certified commercial rodent diet was provided ad libitum. Tap water was provided ad libitum at all times. Rats dorsal skin was shaved and depilated under isoflurane-induced anesthesia using an electric razor and depilating cream (Nair, Church & Dwight) the day before experimentation. Rats were extensively rinsed to prevent burning with residual depilating agent. For irradiation, animals were anesthetized with isoflurane and placed under the UV irradiating lamp (Daavlin 24″ research unit×305/350-6/6) equipped with a UV power meter to manually validate constant dosimetry. Irradiated animal received 700 mJ·cm^2 of UVB. […] Three MN arrays were applied at the same time on different sites of the dorsal skin. MNs were removed, and the application sites were scanned for fluorescence using the portable fluorescence reader. On the first day, sites were read after 0.5, 1, 4, and 6 h. On the second day, new MNs were applied and read immediately or 6 h after application. […]

CN1/C(=C/C=C/C=C/C2=[N+](CCCCCC(=O)O)c3ccccc3C2(C)C)C(C)(C)c2ccccc21 [Cy5, Cyanine-5]
diffusion in the skin (rat skin): minimal diffusion

CN1/C(=C/C=C/C2=[N+](CCCCCC(=O)O)c3ccccc3C2(C)C)C(C)(C)c2ccccc21 [Cy3, Cyanine-3]
diffusion in the skin (rat skin): minimal diffusion
signal retained when exposed to ROS [1]: 40%

Cyanine-7.5-PEG [Cy7.5-PEG]
Cy7.5-PEG fluorescence intensity over time [2]: did not decrease
fluorescence at Cy7.5-PEG wavelengths in the presence of ROS [3]: unaffected
Cy7.5-PEG fluorescence intensity after application in vivo (UV-induced dermal ROS): no significant decrease
